The source of these data is patent US5670503A, “Pyrazole derivatives” (Fujisawa Pharmaceutical Co., Ltd., priority 1993, dated 1997).

As a reminder, the IC50 is the concentration at which inhibition is half-maximal.

In experiment [1] the test system is production of Interleukin-1 (IL-1). Description: Inhibitory activity on the production of Interleukin-1 (IL-1) in LPS-stimulated human peripheral blood monocyte. The class given is cell-based. The following applies: 48 h; purified human peripheral blood monocyte, LPS 1 μg/10^4 cells, 2 days at 37° C., IL-1β ELISA of supernatant; read-out: IC50 (inhibition of IL-1 production). On the procedure: Purified human peripheral blood monocyte were stimulated with bacterial lipopolysaccharide (1 μg/10^4 cells) in the absence or presence of appropriately diluted test compound for 2 days at 37° C. in a humidified 5% CO2 atmosphere. Culture supernatants were tested for IL-1 ELISA assay.
Test compound was dissolved in absolute DMSO (dimethyl sulfoxide) to achieve 10 mM stock solutions and was subsequently diluted in serum free RPMI1640.
IL-1 levels were quantified by a commercial ELISA kit (Ohtsuka assay, Japan) using a sandwich technique. The sensitivity levels for the detection of IL-1β were 20 pg/ml.
(§1) The inhibitory concentration that caused a 50% inhibition (IC50) was calculated by regression analysis of the dose-response data.
Background: In an ELISA, binding on a coated surface is turned into a signal by an enzyme label.

Experiment [2] concerns production of tumor necrosis factor (TNF). Description: Inhibitory activity on the production of tumor necrosis factor (TNF) in LPS-stimulated human peripheral blood monocyte. In kind it is cell-based. The following applies: 48 h; purified human peripheral blood monocyte, LPS 1 μg/10^4 cells, 2 days at 37° C., TNF ELISA of supernatant; read-out: IC50 (inhibition of TNF production). On the procedure: Purified human peripheral blood monocyte were stimulated with bacterial lipopolysaccharide (1 μg/10^4 cells) in the absence or presence of appropriately diluted test compound for 2 days at 37° C. in a humidified 5% CO2 atmosphere. Culture supernatants were tested for TNF ELISA assay.
TNF levels were quantified by a commercial ELISA kit (Endogen, Inc. USA) using a sandwich technique. The sensitivity levels for the detection of TNF were 12 pg/ml.
as §1

Regarding `CC(C)(C)CN1CCn2nc(-c3ccc(F)cc3)c(-c3ccncc3)c2N1` [Example 16-(5), 7-(4-Fluorophenyl)-2-neopentyl-8-(pyridin-4-yl)-1,2,3,4-tetrahydropyrazolo[5,1-c][1,2,4]triazine], the IC50 in experiment [1] was 92 nM; in experiment [2], 91 nM.

As to `Fc1ccc(-c2nn3c(c2-c2ccncc2)NN(C2CCCCC2)CC3)cc1` [Example 18-(2), 2-Cyclohexyl-7-(4-Fluorophenyl)-8-(pyridin-4-yl)-1,2,3,4-tetrahydropyrazolo[5,1-c][1,2,4]triazine], the IC50 in experiment [1] came to 88 nM; in experiment [2], 110 nM.
